Assay results reported in patent publication US20240383908A1, “SYNTHESIS AND APPLICATION OF PHOSPHATASE DEGRADER” (HINOVA PHARMACEUTICALS INC., priority 2021, published 2024).

Legend:
[1] = molecular target: T1, SHP2 protein (Homo sapiens, UniProt Q06124); test: Degradation activity on SHP2 protein in NCI-H358 cells (Western blot, DC50); format: cell-based; set-up: endogenous in cells; settings: read-out: Degradation activity for differenct cell lines NCI-H358 (DC50)
T1 sequence (Q06124 1-593): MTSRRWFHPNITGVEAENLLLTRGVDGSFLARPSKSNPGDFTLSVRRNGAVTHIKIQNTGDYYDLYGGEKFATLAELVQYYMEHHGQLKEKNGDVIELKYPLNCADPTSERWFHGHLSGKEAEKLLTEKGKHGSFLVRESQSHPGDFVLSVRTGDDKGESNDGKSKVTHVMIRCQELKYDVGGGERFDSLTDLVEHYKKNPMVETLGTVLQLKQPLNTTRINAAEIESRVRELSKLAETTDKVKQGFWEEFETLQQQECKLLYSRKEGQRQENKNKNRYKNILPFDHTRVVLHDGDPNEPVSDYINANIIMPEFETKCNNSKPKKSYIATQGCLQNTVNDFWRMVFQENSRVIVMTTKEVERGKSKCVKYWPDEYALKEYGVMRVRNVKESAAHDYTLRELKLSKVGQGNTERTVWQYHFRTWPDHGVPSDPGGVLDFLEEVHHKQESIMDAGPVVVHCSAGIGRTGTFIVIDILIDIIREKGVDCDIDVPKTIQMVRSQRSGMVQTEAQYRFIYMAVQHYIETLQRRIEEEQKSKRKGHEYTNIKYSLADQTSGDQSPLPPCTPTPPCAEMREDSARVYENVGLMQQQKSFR
Procedure: (1) MV-411 cells were cultured in the cell culture medium, and then well-growing cells were selected and inoculated in a 12-well plate, with 1 mL/well and 1×10^6 cells/well. The plate was incubated overnight in a 5% CO2 cell incubator at 37° C.
(2) 10 mM storage solution of each drug was prepared using dimethylsulfoxide (DMSO). The stock solution was diluted gradually with DMSO before use, and then 1 μL of the compound solution was added to the cell culture well (to ensure that the DMSO concentration in the culture system was […]), so that the final drug concentration is 100 nM, 10 nM, 3 nM, 1 nM, 0.3 nM, and 0.1 nM. Two wells were set for each concentration. The plate was gently shaken and mixed. Additionally, negative control wells (containing an equal amount of DMSO) and positive control wells were included.
(3) After 24 hours of cultivation, the cells were lysed using RIPA cell lysate, and the proteins were extracted. The protein concentration was measured using a BCA assay kit. 5× concentrated protein buffer was loaded, heated at 100° C. for 5 min, and then the sample was stored at −20° C.
(4) For each well, 30 μg of protein was loaded to polyacrylamide gel for electrophoresis.
(5) The protein was transferred from polyacrylamide gel to PVDF membrane, and sealed at room temperature with 5% skimmed milk for 1 h, which was then incubated with the primary antibodies (Anti-SHP2 rabbit mAb and Anti-GAPDH rabbit mAb) at 4° C. overnight. The membrane was washed three times with TBST solution, 10 minutes for each time. After that, the membrane was incubated with the secondary antibodies (horseradish peroxidase labeled goat anti-rabbit IgG) at room temperature for 2 h, and then washed three times with TBST solution, 10 minutes for each time, followed by exposure.
(6) The images were analyzed with Image J grayscale, and the degradation ratio of protein bands in the test group was calculated, based on the negative control group (DMSO) (100%).
(7) Using the Dose-response-inhibition equation in the data processing software GraphPad Prism 8, the DC50 value was obtained (which represents the drug concentration corresponding to 50% degradation of the target protein).
Using similar methods and different cell lines, the degradation activity of the compound according to the present invention on SHP2 protein of different cell lines was tested under suitable culture conditions.

[2] = molecular target: T1, SHP2 protein; test: Degradation activity on SHP2 protein in MIA Paca-2 cells (Western blot, DC50); format: cell-based; set-up: endogenous in cells; host or cells: MIA Paca-2 cells; settings: read-out: Degradation activity for differenct cell lines MIA Paca-2 (DC50)
How it was run: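 Cells were treated 24 h at 37 °C with compound (0.1–100 nM final, 0.1% DMSO). SHP2 was measured by Western blot with GAPDH as loading control, densitometry normalized to DMSO (100%). DC50, the concentration giving 50% degradation, came from a dose-response fit.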

Row | SMILES | DC50 [1] [µM] | DC50 [2] [µM]
1 | CC1(N)CCN(c2cnc(Sc3cccc(NC(=O)c4ccc(N5CCC(N6CC=C(c7ccc(C(=O)NCc8ccc9c(c8)CN(C8CCC(=O)NC8=O)C9=O)nc7)C6)CC5)c(F)c4)c3)cn2)CC1 (centres unmarked) [Compound 410] | < 0.1 | < 0.1
2 | CC1(N)CCN(c2cnc(Sc3cccc(NC(=O)c4ccc(N5CCC(N6CC=C(c7cnc(C(=O)NCc8ccc9c(c8)CN(C8CCC(=O)NC8=O)C9=O)cc7Cl)CC6)CC5)c(F)c4)c3)cn2)CC1 (centres unmarked) [Compound 418] | < 0.1 | < 0.1
3 | CC1(N)CCN(c2cnc(Sc3cccc(NC(=O)c4ccc(N5CCC(N6CC=C(c7cnc(C(=O)NCc8ccc9c(c8)CN(C8CCC(=O)NC8=O)C9=O)cc7Cl)CC6)CC5)nc4)c3)cn2)CC1 (centres unmarked) [Compound 419] | < 0.1 | < 0.1
4 | Cc1cc(C(=O)Nc2cccc(Sc3cnc(N4CCC(C)(N)CC4)cn3)c2)ccc1N1CCC(N2CC=C(c3cnc(C(=O)NCc4ccc5c(c4)CN(C4CCC(=O)NC4=O)C5=O)c(F)c3)CC2)CC1 (centres unmarked) [Compound 439] | < 0.1 | < 0.1
5 | CC1(N)CCN(c2cnc(Sc3cccc(NC(=O)c4ccc(N5CCC(N6CC=C(c7ccc(C(=O)NCc8ccc9c(c8)CN(C8CCC(=O)NC8=O)C9=O)nc7Cl)CC6)CC5)c(F)c4)c3)cn2)CC1 (centres unmarked) [Compound 442] | 0.1 to 1 | 0.1 to 1
6 | Cc1cc(N2CCC(N3CC=C(c4cnc(C(=O)NCc5ccc6c(c5)CN(C5CCC(=O)NC5=O)C6=O)c(Cl)c4)CC3)CC2)ccc1C(=O)Nc1cccc(Sc2cnc(N3CCC(C)(N)CC3)cn2)c1 (centres unmarked) [Compound 443] | < 0.1 | 0.1 to 1
7 | CC1(N)CCN(c2cnc(Sc3cccc(NC(=O)c4ccc(N5CCC(N6CC=C(c7ccc(C(=O)NCc8ccc9c(c8)CN(C8CCC(=O)NC8=O)C9=O)cc7)CC6)CC5)c(F)c4)c3)cn2)CC1 (centres unmarked) [Compound 445] | < 0.1 | 0.1 to 1
8 | CC1(N)CCN(c2cnc(Sc3cccc(NC(=O)c4ccc(N5CCC(N6CC=C(c7ccc(C(=O)NCc8ccc9c(c8)CN(C8CCC(=O)NC8=O)C9=O)cc7)CC6)CC5)cc4)c3)cn2)CC1 (centres unmarked) [Compound 446] | < 0.1 | < 0.1
9 | CC1(N)CCN(c2cnc(Sc3cccc(NC(=O)c4ccc(N5CCC(N6CCN(c7ccc(C(=O)NCc8ccc9c(c8)CN(C8CCC(=O)NC8=O)C9=O)nc7)CC6)CC5)cn4)c3)cn2)CC1 (centres unmarked) [Compound 448] | < 0.1 | < 0.1
10 | CC1(N)CCN(c2cnc(Sc3cccc(NC(=O)c4ncc(N5CCC(N6CCN(c7ccc(C(=O)NCc8ccc9c(c8)CN(C8CCC(=O)NC8=O)C9=O)nc7)CC6)CC5)cn4)c3)cn2)CC1 (centres unmarked) [Compound 451] | < 0.1 | < 0.1
11 | Cc1cc(N2CCC(N3CC=C(c4cnc(C(=O)NCc5ccc6c(c5)CN(C5CCC(=O)NC5=O)C6=O)cc4C)CC3)CC2)ccc1C(=O)Nc1cccc(Sc2cnc(N3CCC(C)(N)CC3)cn2)c1 (centres unmarked) [Compound 457] | < 0.1 | < 0.1
12 | Cc1cc(C(=O)NCc2ccc3c(c2)CN(C2CCC(=O)NC2=O)C3=O)ncc1C1=CCN(C2CCN(c3ccc(C(=O)Nc4cccc(Sc5cnc(N6CCC7(CC6)CO[C@@H](C)[C@H]7N)cn5)c4)cc3F)CC2)CC1 (some centres unmarked) [Compound 465] | < 0.1 | < 0.1
13 | CC1(N)CCN(c2cnc(Sc3cccc(NC(=O)c4ccc(N5CCC(N6CC=C(c7ccc(C(=O)NCc8ccc9c(c8)CN(C8CCC(=O)NC8=O)C9=O)nc7F)CC6)CC5)c(F)c4)c3)cn2)CC1 (centres unmarked) [Compound 467] | 0.1 to 1 | < 0.1
